Results taken from paper PMC10584496, “Brazilin from Caesalpinia sappan L. as a Proprotein Convertase Subtilisin/Kexin Type 9 (PCSK9) Inhibitor: Pharmacophore-Based Virtual Screening, In Silico Molecular Docking, and In Vitro Studies” (Advances in Pharmacological and Pharmaceutical Sciences, 2023).

Target: T1, Proprotein convertase subtilisin/kexin type 9 (PCSK9) (Homo sapiens, UniProt Q8NBP7)
T1 construct: His-tagged recombinant PCSK9 wild type
Assay: CircuLex PCSK9-LDLR in vitro binding assay kit (plate-based, ELISA-type)

T1 sequence (Q8NBP7 31-152): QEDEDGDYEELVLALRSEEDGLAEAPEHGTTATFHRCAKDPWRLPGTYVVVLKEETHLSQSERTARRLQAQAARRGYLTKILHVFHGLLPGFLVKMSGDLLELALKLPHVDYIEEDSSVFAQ
T1 sequence (Q8NBP7 153-692): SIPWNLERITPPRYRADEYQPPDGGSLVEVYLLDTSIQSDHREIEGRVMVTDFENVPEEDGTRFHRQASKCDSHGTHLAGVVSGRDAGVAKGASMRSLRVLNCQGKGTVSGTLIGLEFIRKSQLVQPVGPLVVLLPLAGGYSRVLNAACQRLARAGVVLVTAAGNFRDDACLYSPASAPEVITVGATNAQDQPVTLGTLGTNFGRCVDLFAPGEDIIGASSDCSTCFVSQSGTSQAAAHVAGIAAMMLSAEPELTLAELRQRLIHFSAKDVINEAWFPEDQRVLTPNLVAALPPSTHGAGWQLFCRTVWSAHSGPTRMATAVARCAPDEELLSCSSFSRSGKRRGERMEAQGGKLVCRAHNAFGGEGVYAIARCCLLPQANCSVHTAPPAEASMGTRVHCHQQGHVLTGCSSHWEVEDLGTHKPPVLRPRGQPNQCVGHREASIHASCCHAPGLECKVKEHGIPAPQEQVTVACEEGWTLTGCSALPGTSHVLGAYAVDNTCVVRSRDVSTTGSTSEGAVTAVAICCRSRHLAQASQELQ
T1 sequence (P01130 22-860 partner): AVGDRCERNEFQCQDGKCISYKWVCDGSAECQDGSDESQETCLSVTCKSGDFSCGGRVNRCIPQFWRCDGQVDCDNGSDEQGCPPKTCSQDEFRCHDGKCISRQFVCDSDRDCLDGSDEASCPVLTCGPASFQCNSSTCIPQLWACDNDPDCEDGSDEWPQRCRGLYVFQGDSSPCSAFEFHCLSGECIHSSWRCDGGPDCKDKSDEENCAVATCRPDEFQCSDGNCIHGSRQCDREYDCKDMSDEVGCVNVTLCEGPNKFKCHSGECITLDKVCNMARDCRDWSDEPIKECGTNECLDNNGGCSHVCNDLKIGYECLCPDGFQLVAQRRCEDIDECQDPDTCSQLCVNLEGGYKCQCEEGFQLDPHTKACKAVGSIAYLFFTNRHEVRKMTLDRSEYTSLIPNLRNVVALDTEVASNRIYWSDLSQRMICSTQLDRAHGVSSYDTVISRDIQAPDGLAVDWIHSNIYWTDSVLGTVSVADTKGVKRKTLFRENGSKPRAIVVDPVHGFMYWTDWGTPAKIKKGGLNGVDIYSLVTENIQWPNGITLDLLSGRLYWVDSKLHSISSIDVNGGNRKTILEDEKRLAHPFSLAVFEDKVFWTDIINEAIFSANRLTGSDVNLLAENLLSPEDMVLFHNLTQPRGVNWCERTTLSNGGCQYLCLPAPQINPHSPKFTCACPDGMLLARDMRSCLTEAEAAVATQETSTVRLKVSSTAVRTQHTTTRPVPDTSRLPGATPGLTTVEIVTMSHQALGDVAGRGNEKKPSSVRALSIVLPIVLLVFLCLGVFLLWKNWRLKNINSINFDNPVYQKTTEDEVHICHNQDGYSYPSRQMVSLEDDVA

IC50: 2190 nM
Structure (SMILES): Oc1ccc2c(c1)OC[C@]1(O)Cc3cc(O)c(O)cc3[C@H]21 [brazilin]
